Experimental data from patent publication US20040122209A1, “Products for regulating the degradation of collagen and methods for identifying same” (Shriners Hospital For Children, priority 2002, published 2004).

How the values were obtained:
[1] = tested on: bovine articular cartilage explant; assay: Collagenase-cleaved type II collagen (COL2-3/4C) in bovine articular cartilage explant culture; format: cell-based; conditions: 1 and 10 μM, time- and dose-dependent
Method: The cartilages were prepared as previously described (Dahlberg, L. et al. (2000) supra. In brief, the cartilage samples were washed three times with basal culture medium containing Dulbecco's modified Eagle's medium (DMEM; Gibco BRL, Life Technologies, Grand Island, N.Y.) with 20 mM HEAPS buffer (pH 7.4) (Gibco BRL), 45 mM NaHCO3, 100 units/ml penicillin, 100 μg/ml streptomycin and 150 μg/ml gentamycin sulphate (Medium A). Full-depth cartilage slices from a single area, around 20 mm×20 mm were cut vertical to the articular surface and then into cubes of approximately 2 mm×2 mm (5-7 cubes were randomly obtained and wet weights about 50-70 mg/well determined).
The cartilage was assigned to 48 well plate (ca 40 mg/well) and kept in Medium A supplemented with 50 μg/ml ascorbic acid, 0.1 mg/bovine serum albumin, 50 μg/ml insulin, 5.0 μg/ml and 5.0 μg/ml sodium DMEM alone at 37° C. in 95% air/5% CO2. The cartilage was precultured for 2 days and medium was changed at day 0. Thereafter medium (as described in pellet cultures) was replaced every four days. Various CNBr fragments and/or synthetic peptides were freshly added from day 0 at each medium change. Thereafter, cartilage explants and conditioned media were harvested and stored at −20° C.
The cell pellets and cartilage explant cultured for various times were digested for the extraction of collagenase-generated neoepitope COL2-3/4Cshort (Billinghurst, R. C. et al., (1997) supra) and denatured type II collagen epitope COL2-3/4m and total type II collagen (Hollander, A. P. et al. (1994a) supra), as previously described: Briefly, the harvested pellets were incubated overnight with 1.0 mg/ml α-chymotrypsin at 37° C. to cleave and solubilize denatured collagen leaving the above neoepitope and epitope intact. After inhibition of α-chymotrypsin activity with N-tosyl-L-phenelalanine-chloromethyl ketone (Sigma), the samples were centrifuged and the supernatants were removed and boiled for 10 min. The COL2-3/4Cshort epitope (hereafter referred to as COL2-3/4Cshort) generated by cleavage of type II collagen by collagenase (Billinghurst, R. C. et al. (1997) supra) and intrachain epitope (COL2-3/4m) exposed in denatured type II collagen (Hollander, A. P. et al. (1994a) supra) were measured in α-chymotrypsin extracts by immunoassay. The COL2-3/4Cshort epitope is detected in an ELISA assay using a rabbit antibody to the carboxyterminal cleavage neoepitope on the TCA piece generated by primary collagenase cleavage of type II collagen. The release of the COL2-3/4C epitope into media was also measured by immunoassay. Total contents in tissue/cells and media was recorded for COL2-3/^4Cshort epitope. The COL2-3/4m epitope was recorded in cells and tissue where it was concentrated. The remaining residues of pellets and explants were digested overnight with 1.0 mg/ml proteinase K at 56° C. to extract the remaining intact type II collagen and then boiled for 10 min to denature the enzyme. Total type II collagen content in the pellets and explant was determined from the collective amount of COL2-3/4m in both the α-chymotrypsin and proteinase K digests.

MMP-1 = assay: RT-PCR of MMP-1 mRNA in human chondrocyte culture; format: cell-based; conditions: 24 hours incubation; data not shown
Text: Isolated normal human chondrocytes were used for chondrocyte cultures, detection of integrin expression by FACScan, and cell attachment assays. The dissected normal human cartilage obtained at autopsy was cut into small cubes 2-4 mm in size. Chondrocytes were isolated as previously described (34), with some modifications. Briefly, the cubes were washed three times with medium (A). Thereafter, the diced cartilage was digested with 0.1% (wt/vol) trypsin (Sigma) and 0.02% (wt/vol) EDTA (Sigma) for 60 minutes (25 ml/10 g wet weight tissue) at 37° C. After washing the cartilage with Medium A containing 10% heat-inactivated fetal calf serum (FCS) to inhibit the trypsin, the digestion was continued in the same medium with serum (50 ml/10 g wet weight tissue) containing 0.2% (wt/vol) collagenase (type IA; Sigma) for 16 h at 37° C. with gentle agitation on a gyrotary shaker. Undigested cartilage was removed by filtration through a layer of nylon mesh (Cell Strainer; Becton Dickinson Labware, NJ). […]
Total RNA was isolated from chondrocytes or cartilage explants by the guanidine isothiocyanate procedure according to Chomczynski and Sacchi (Chomczynski, P. et al., Anal. Biochem. 162:156-9 (1987)) with some modifications. […] The total RNA pellet was resuspended in diethyl pyrocarbonate-treated (DEPC) water and the amount of total RNA was measured by reading optical density at 260 nm. […]

ERGPPGPQGARGFPGTPGLPGVK [CB12-II]
induction of total collagenase cleavage of type II collagen by CB12 subpeptides [1]: most pronounced
MMP-1 gene expression (mRNA by RT-PCR) (MMP-1): clearly induced
